Columns and labels:
[1] = Clinical studies with Compound A (exposure among patients); assay type: in vivo
Description: The formulations of the instant invention have advantages over other formulations of c-Met kinase inhibitors. […] Based upon the sharp dependence of solubility on pH, it can be postulated that the performance of these formulations can vary based on variability in gastric pH. […] Exposure can vary due to many factors, including whether the inhibitor is taken with or without food. The formulations of the instant invention give in vivo exposures to the drug that are less sensitive to changes in gastric pH than other formulations.

[2] = Solubility measurements of Compound A HCl salt in 250 mL SGF with citric acid pre-dissolved; assay type: physicochemical
Description: FIG. 2 describes the solubility measurements for Compound A HCl salt in 250 mL of SGF with various amounts of citric acid anhydrous pre-dissolved.
Within this formulation the amount of citric acid anhydrous available is 160.44 mg (Target fill weight for the capsule is 382.0 mg)

Q: Which results are given for `Cn1cc(-c2cnc3ccc4ccc(CS(=O)(=O)NCc5ccccn5)cc4c(=O)c3c2)cn1` [Compound A, 1-[3-(1-Methyl-1H-pyrazol-4-yl)-5-oxo-5H-benzo[4,5]cyclohepta[1,2-b]pyridin-7-yl]-N-(pyridin-2-ylmethyl)methanesulfonamide]?
A: variability in Compound A exposure among patients [1]: high variability; exposure in patients concomitantly taking antacids ([1]; some patients with high gastric pH (antacids)): lower exposures; maximum solubility ([2]; 300 mg of citric acid fully dissolved in 250 mL of SGF pH 3.0, Compound A HCl salt (FIG. 2)): approximately 15 mg; % dissolved equated from maximum solubility ([2]; for a 110 mg potency capsule, 300 mg citric acid pre-dissolved in 250 mL SGF pH 3.0): 14%
